The values below come from US9884048B2, “ERK inhibitors” (Merck Sharp & Dohme Corp., priority 2014, dated 2018).

In general, IC50 refers to the midpoint of a concentration-inhibition curve.

Sequence of phosphorylated active hERK2 enzyme (P28482 whole entry): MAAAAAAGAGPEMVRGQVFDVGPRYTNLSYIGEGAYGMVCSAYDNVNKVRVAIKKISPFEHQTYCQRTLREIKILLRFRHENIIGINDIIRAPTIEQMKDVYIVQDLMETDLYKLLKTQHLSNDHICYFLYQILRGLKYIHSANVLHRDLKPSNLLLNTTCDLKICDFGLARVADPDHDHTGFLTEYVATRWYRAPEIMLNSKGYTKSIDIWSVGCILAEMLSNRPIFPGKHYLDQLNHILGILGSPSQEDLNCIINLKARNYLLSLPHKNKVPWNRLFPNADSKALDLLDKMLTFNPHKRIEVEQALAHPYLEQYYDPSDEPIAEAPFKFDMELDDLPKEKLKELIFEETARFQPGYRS

The first assay concerns the target phosphorylated active hERK2 enzyme (Homo sapiens (Human), UniProt P28482).
Conditions: not given
On to `C[C@@H](NC(=O)Nc1cc2cnn(CC3CCCC3)c2c(CO)n1)c1ccccc1` [Example 303, 1-[1-(cyclopentylmethyl)-7-(hydroxymethyl)-1H-pyrazolo[3,4-c]pyridin-5-yl]-3-[(1R)-1-phenylethyl]urea], for which the 50% inhibitory concentration (IC50) is 294 nM.
On the same count and under the same terms, the figure for `CO[C@H]1CCCC[C@@H]1NC(=O)Nc1cc2cnn(-c3ccnc(C)c3)c2cn1` (racemic) [Example 145, Racemic 1-[(1S,2S) and (1R,2R)-2-methoxycyclohexyl]-3-[1-(2-methylpyridin-4-yl)-1H-pyrazolo[3,4-c]pyridin-5-yl)urea] is 122 nM.

Still in this assay, the particulars now being: read-out: ERK2 IC50; IMAP-FP assay; 0.5 nM hERK2, 30 μM ATP; 10 point titration, 3 μM starting concentration.
As for `Cc1cc(-n2ncc3cc(NC(=O)N[C@@H](CN)c4ccccc4)ncc32)ccn1` [Example 186, 1-[(1R)-2-amino-1-phenylethyl]-3-[1-(2-methylpyridin-4-yl)-1H-pyrazolo[3,4-c]pyridin-5-yl]urea], the IC50 is 42.5 nM.
On the same count and under the same terms, as for `Cc1cc(-n2ncc3cc(NC(=O)N[C@H](Cn4ccnc4)c4ccccc4)ncc32)ccn1` [Example 134, 1-[(1S)-2-(1H-imidazol-1-yl)-1-phenylethyl]-3-[1-(2-methylpyridin-4-yl)-1H-pyrazolo[3,4-c]pyridin-5-yl]urea], the figure is 475 nM.
Still for that read-out and setting: the figure for `C=CC(=O)NC[C@@H](NC(=O)Nc1cc2cnn(C)c2cn1)c1ccccc1` [Example 328, N-[(2S)-2-{[(1-Methyl-1H-pyrazolo[3,4-c]pyridin-5-yl)carbamoyl]amino}-2-phenylethyl]prop-2-enamide] is 796 nM; for `Cc1cc(-n2ncc3cc(NC(=O)NCc4c(C)nn(C)c4C)ncc32)ccn1` [Example 116, 1-[1-(2-methylpyridin-4-yl)-1H-pyrazolo[3,4-c]pyridin-5-yl]-3-[(1,3,5-trimethyl-1H-pyrazol-4-yl)methyl]urea] it is 27.6 nM.
Take `C[C@@H](NC(=O)Nc1cc2cnn(C3CCCCC3)c2c(CO)n1)c1ccccc1` [Example 313, 1-[1-cyclohexyl-7-(hydroxymethyl)-1H-pyrazolo[3,4-c]pyridin-5-yl]-3-[(1R)-1-phenylethyl]urea]: the IC50 came to 49.1 nM.
The same measure, in the same setting: the figure for `Cc1cc(-n2ncc3cc(NC(=O)NCc4ccc(F)c(Cl)c4)ncc32)ccn1` [Example 214, 1-(3-chloro-4-fluorobenzyl)-3-[1-(2-methylpyridin-4-yl)-1H-pyrazolo[3,4-c]pyridin-5-yl]urea] is 4.05 nM; for `O=C(Nc1cc2cnn(Cc3ccncc3)c2cn1)N[C@H](CO)c1ccccc1` [Example 261, 1-[(1S)-2-hydroxy-1-phenylethyl]-3-[1-(pyridin-4-ylmethyl)-1H-pyrazolo[3,4-c]pyridin-5-yl]urea] it is 2430 nM; for `C[C@@H](NC(=O)Nc1cc2cnn(CC3CCOC3)c2c(CO)n1)c1ccccc1` (stereo partly drawn) [Example 311, 1-[7-(hydroxymethyl)-1-(tetra-hydrofuran-3-ylmethyl)-1H-pyrazolo[3,4-c]pyridin-5-yl]-3-[(1R)-1-phenylethyl]urea] it is 158 nM.
The same measure, in the same setting: as for `O=C(NCc1ccc(Cl)c(Cl)c1)Nc1cc2cnn(-c3ccncc3)c2cn1` [Example 12, 1-(3,4-dichlorobenzyl)-3-(1-pyridin-4-yl-1H-pyrazolo[3,4-c]pyridin-5-yl)urea], the figure is 0.9 nM; as for `Cc1cc(-n2ncc3cc(NC(=O)NCc4cccc(NS(C)(=O)=O)c4)ncc32)ccn1` [Example 32, N-{3-[({[1-(2-methylpyridin-4-yl)-1H-pyrazolo[3,4-c]pyridin-5-yl]carbamoyl}amino)methyl]phenyl}methanesulfonamide], 0.442 nM.
`Cc1cc(-n2ncc3cc(NC(=O)NCC(F)(F)c4ccccc4)ncc32)ccn1` [Example 61, 1-(2,2-difluoro-2-phenylethyl)-3-[1-(2-methylpyridin-4-yl)-1H-pyrazolo[3,4-c]pyridin-5-yl]urea]: the IC50 was 193 nM.
The same measure, in the same setting: the figure for `O=C(NCc1ccc(Cl)cc1)Nc1cc2cnn(-c3ccncc3)c2cn1` [Example 42, 1-(4-chlorobenzyl)-3-(1-pyridin-4-yl-1H-pyrazolo[3,4-c]pyridin-5-yl)urea] is 8.03 nM; for `Cc1cc(-n2ncc3cc(NC(=O)NC(C)c4cccc(OC(F)(F)F)c4)ncc32)ccn1` (stereo not shown) [Example 48, 1-[1-(2-methylpyridin-4-yl)-1H-pyrazolo[3,4-c]pyridin-5-yl]-3-{1-[3-(trifluoromethoxy)phenyl]ethyl}urea] it is 10.7 nM.
The same measure, in the same setting: the figure for `COC(=O)NCc1nc(NC(=O)N[C@H](C)c2ccccc2)cc2cnn(-c3ccc(F)cc3)c12` [Example 326, Methyl {[1-(4-fluorophenyl)-5-({[(1R)-1-phenylethyl]carbamoyl}amino)-1H-pyrazolo[3,4-c]pyridin-7-yl]methyl}carbamate] is 17.6 nM; for `Cc1cc(-n2ncc3cc(NC(=O)NCc4cnn5ccccc45)ncc32)ccn1` [Example 64, 1-[1-(2-methylpyridin-4-yl)-1H-pyrazolo[3,4-c]pyridin-5-yl]-3-(pyrazolo[1,5-a]pyridin-3-ylmethyl)urea] it is 71.6 nM; for `Cc1cc(-n2ncc3cc(NC(=O)NC[C@H]4CCN(C)C4)ncc32)ccn1` [Example 289, 1-[1-(2-methylpyridin-4-yl)-1H-pyrazolo[3,4-c]pyridin-5-yl]-3-{[(3R)-1-methylpyrrolidin-3-yl]methyl}urea] it is 36.6 nM.
Still for that read-out and setting: as for `Cc1cc(-n2ncc3cc(NC(=O)N[C@H]4CN(C)C[C@@H]4c4ccccc4Cl)ncc32)ccn1` [Example 16, 1-[(3R,4S)-4-(2-chlorophenyl)-1-methylpyrrolidin-3-yl]-3-[1-(2-methylpyridin-4-yl)-1H-pyrazolo[3,4-c]pyridin-5-yl]urea], the figure is 0.952 nM.
Consider `Cc1cc(-n2ncc3cc(NC(=O)NC4CCN(C)C4=O)ncc32)ccn1` (stereo not shown) [Example 23, 1-(1-methyl-2-oxopyrrolidin-3-yl)-3-[1-(2-methylpyridin-4-yl)-1H-pyrazolo[3,4-c]pyridin-5-yl)urea], for which the IC50 was found to be 314 nM.
Same read-out and setting: the figure for `C[C@@H](NC(=O)Nc1cc2cnn(-c3ccncc3)c2cn1)c1ccc(F)cc1` [Example 7, 1-[(1R)-1-(4-fluorophenyl)ethyl]-3-(1-pyridin-4-yl-1H-pyrazolo[3,4-c]pyridin-5-yl)urea] is 16.2 nM; for `Cc1cc(-n2ncc3cc(NC(=O)N[C@H]4[C@H](c5ccccc5)CN(C)C45COC5)ncc32)ccn1` [Example 183, 1-[(7R,8S)-5-methyl-7-phenyl-2-oxa-5-azaspiro[3.4]oct-8-yl]-3-[1-(2-methylpyridin-4-yl)-1H-pyrazolo[3,4-c]pyridin-5-yl]urea] it is 12.2 nM.
Still for that read-out and setting: as for `Cc1cc(-n2ncc3cc(NC(=O)NCCC4CCOC4)ncc32)ccn1` (stereo not shown) [Example 83, 1-[1-(2-methylpyridin-4-yl)-1H-pyrazolo[3,4-c]pyridin-5-yl]-3-[2-(tetrahydrofuran-3-yl)ethyl]urea], the figure is 64.7 nM.
Still for that read-out and setting: the figure for `COC(=O)[C@@H](NC(=O)Nc1cc2cnn(-c3ccnc(C)c3)c2cn1)c1ccccc1` [Example 137, methyl (2S)-({[1-(2-methylpyridin-4-yl)-1H-pyrazolo[3,4-c]pyridin-5-yl]carbamoyl}amino)(phenyl) ethanoate] is 857 nM; for `C[C@@H](NC(=O)Nc1cc2cnn(CC3COC3)c2c(CO)n1)c1ccccc1` [Example 315, 1-[7-(hydroxymethyl)-1-(oxetan-3-ylmethyl)-1H-pyrazolo[3,4-c]pyridin-5-yl]-3-[(1R)-1-phenylethyl]urea] it is 143 nM; for `C[C@@H](NC(=O)Nc1cc2cnn(-c3ccc(F)cc3)c2cn1)c1ccc(F)cc1` [Example 3, 1-[(1R)-1-(4-fluorophenyl)ethyl]-3-[1-(4-fluorophenyl)-1H-pyrazolo[3,4-c]pyridin-5-yl)urea] it is 10.6 nM.
`COCCOC[C@@H](NC(=O)Nc1cc2cnn(-c3ccnc(C)c3)c2cn1)c1ccccc1` [Example 136, 1-[(1S)-2-(2-methoxyethoxy)-1-phenylethyl]-3-[1-(2-methylpyridin-4-yl)-1H-pyrazolo[3,4-c]pyridin-5-yl]urea]: the IC50 came out at 4.39 nM.
The same measure, in the same setting: as for `CNC(=O)c1cccc(CNC(=O)Nc2cc3cnn(-c4ccnc(C)c4)c3cn2)c1` [Example 97, N-methyl-3-[({[1-(2-methylpyridin-4-yl)-1H-pyrazolo[3,4-c]pyridin-5-yl]carbamoyl}amino)methyl] benzamide], the figure is 3.39 nM; as for `Cc1cc(-n2ncc3cc(NC(=O)NCCc4c(C)noc4C)ncc32)ccn1` [Example 117, 1-[2-(3,5-dimethylisoxazol-4-yl)ethyl]-3-[1-(2-methylpyridin-4-yl)-1H-pyrazolo[3,4-c]pyridin-5-yl)urea], 16.4 nM.
The same measure, in the same setting: the figure for `Cc1cc(-n2ncc3cc(NC(=O)N[C@H]4CN(C)C[C@@H]4c4ccc(C)s4)ncc32)ccn1` [Example 189, 1-[(3R,4S)-1-methyl-4-(5-methylthiophen-2-yl)pyrrolidin-3-yl]-3-[1-(2-methylpyridin-4-yl)-1H-pyrazolo[3,4-c]pyridin-5-yl]urea] is 0.254 nM.
On to `Cn1cc(-n2ncc3cc(NC(=O)NCc4ccc(F)c(Cl)c4)ncc32)cn1` [Example 218, 1-(3-chloro-4-fluorobenzyl)-3-[1-(1-methyl-1H-pyrazol-4-yl)-1H-pyrazolo[3,4-c]pyridin-5-yl]urea], for which the half-maximal inhibitory concentration (IC50) came out at 20.8 nM.
Same read-out and setting: as for `Cc1cc(-n2ncc3cc(NC(=O)N[C@H]4[C@H](c5ccccc5C)CN(C)C4(C)C)ncc32)ccn1` [Example 102, 1-[1-(2-methylpyridin-4-yl)-1H-pyrazolo[3,4-c]pyridin-5-yl]-3-[(3S,4R)-1,2,2-trimethyl-4-(2-methylphenyl)pyrrolidin-3-yl)urea], the figure is 235 nM; as for `Cc1cc(-n2ncc3cc(NC(=O)N[C@H](C)c4ccc(Cl)c(Cl)c4)ncc32)ccn1` [Example 220, 1-[(1R)-1-(3,4-dichlorophenyl)ethyl]-3-[1-(2-methylpyridin-4-yl)-1H-pyrazolo[3,4-c]pyridin-5-yl]urea], 3.33 nM; as for `Cc1cc(-n2ncc3cc(NC(=O)NCc4ccc(N5CCCC5=O)cc4)ncc32)ccn1` [Example 91, 1-[1-(2-methylpyridin-4-yl)-1H-pyrazolo[3,4-c]pyridin-5-yl]-3-[4-(2-oxopyrrolidin-1-yl)benzyl]urea], 332 nM.
